Reference: US8940742B2, “Heterocyclic compounds and uses thereof” (Infinity Pharmaceuticals, Inc., priority 2012, dated 2015)

Key:
Raw264.7 p110 γ = target: T1, Raw264.7 p110 γ (Mus musculus, UniProt Q9JHG7); assay: Raw264.7 p110 γ cellular assay (phospho-AKT); format: cell-based; settings: serum-starved RAW264.7 cells stimulated with C5a
T1 construct: reduction of phospho-AKT in stimulated RAW 264.7 cells; endogenous in cells; host or cells: RAW264.7 macrophages
From the text: (b) PI3K-γ Selective Assay
Briefly, serum-starved PAW264.7 cells are stimulated with a known GPCR agonist C5a. […] Cells can be treated with test compounds prior to, simultaneously with, or subsequent to the stimulation by C5a. RAW 264.7 cells respond to the complement component fragment C5a through activation of the C5a receptor, and the C5a receptor activates macrophages and induces cell migration.

PI3K δ = target: T2, PI3K δ (Homo sapiens, UniProt O00329); assay: PI3-Kinase Promega ADP-Glo Max assay; format: biochemical; settings: 20 nM kinase, 3 mM ATP, 500 uM diC8-PtdInsP
T2 construct: purchased Millipore
Procedure: (§1) Promega ADP-Glo Max assay kit (Cat. No. V7002) was utilized to determine IC50 values for α, β, δ and γ isoforms of human Class I PI3 kinases (Millipore). Samples of kinase (20 nM α or δ, 40 nM β or γ isoform) were incubated with compound for 15 minutes at room temperature in reaction buffer (15 mM HEPES pH 7.4, 20 mM NaCl, 1 mM EGTA, 0.02% Tween 20, 10 mM MgCl2, 0.2 mg/mL bovine-γ-globulins) followed by addition of ATP/diC8-PtdInsP mixture to give final concentrations of 3 mM ATP and 500 uM diC8-PtdInsP. Reactions were incubated at room temperature for 2 hours followed by addition of 25 uL of stop solution. After a 40-minute incubation at room temperature, 50 uL of Promega detection mix was added followed by incubation for 1 hour at room temperature. Plates were then read on Envision plate reader in luminescence mode. Data was converted to % inhibition using the following equation below:
(§2) [formula] where S is the sample luminescence, Pos is a positive control without added PI3K, Neg is the negative control without added compound. Data was then plotted as % inhibition vs compound concentration. Data fit to 4 parameter logistic equation to determine IC50 values: […]
(§3) Certain compounds provided herein were tested in PI3-Kinase Promega Assay using procedures as described above to determine IC50 values for α, β, δ and/or γ isoforms.

PI3K α = target: T3, PI3K α (Homo sapiens, UniProt P42336); assay: PI3-Kinase Promega ADP-Glo Max assay; format: biochemical; settings: 20 nM kinase, 3 mM ATP, 500 uM diC8-PtdInsP
T3 construct: purchased Millipore
T3 sequence (P42336 whole entry): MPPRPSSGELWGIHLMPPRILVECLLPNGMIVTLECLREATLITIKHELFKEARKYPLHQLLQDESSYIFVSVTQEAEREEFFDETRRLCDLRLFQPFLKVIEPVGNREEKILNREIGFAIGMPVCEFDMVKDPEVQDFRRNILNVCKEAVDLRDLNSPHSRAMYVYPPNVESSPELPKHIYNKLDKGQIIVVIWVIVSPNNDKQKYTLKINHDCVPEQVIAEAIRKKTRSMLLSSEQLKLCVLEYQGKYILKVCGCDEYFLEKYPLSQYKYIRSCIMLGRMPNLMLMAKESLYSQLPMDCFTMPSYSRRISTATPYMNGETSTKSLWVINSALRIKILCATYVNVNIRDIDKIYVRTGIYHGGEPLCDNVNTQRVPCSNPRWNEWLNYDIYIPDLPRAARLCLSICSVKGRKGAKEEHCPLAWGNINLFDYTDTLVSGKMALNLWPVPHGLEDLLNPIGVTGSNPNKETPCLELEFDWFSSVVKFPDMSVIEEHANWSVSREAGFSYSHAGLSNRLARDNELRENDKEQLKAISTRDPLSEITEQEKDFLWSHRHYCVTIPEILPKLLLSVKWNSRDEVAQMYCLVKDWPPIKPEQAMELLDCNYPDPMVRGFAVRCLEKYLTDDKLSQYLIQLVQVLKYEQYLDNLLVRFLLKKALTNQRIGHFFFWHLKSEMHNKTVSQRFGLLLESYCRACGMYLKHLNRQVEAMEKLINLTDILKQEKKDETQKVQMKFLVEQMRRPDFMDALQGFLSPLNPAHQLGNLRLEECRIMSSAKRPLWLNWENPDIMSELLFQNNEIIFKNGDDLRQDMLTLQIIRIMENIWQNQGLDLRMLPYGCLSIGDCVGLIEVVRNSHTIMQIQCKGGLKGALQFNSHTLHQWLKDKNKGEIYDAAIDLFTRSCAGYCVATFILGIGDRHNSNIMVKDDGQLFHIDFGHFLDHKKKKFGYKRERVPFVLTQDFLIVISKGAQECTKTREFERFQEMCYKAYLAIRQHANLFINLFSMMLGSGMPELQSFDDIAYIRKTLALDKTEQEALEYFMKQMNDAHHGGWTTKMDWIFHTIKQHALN
T3 sequence (P27986 whole entry partner): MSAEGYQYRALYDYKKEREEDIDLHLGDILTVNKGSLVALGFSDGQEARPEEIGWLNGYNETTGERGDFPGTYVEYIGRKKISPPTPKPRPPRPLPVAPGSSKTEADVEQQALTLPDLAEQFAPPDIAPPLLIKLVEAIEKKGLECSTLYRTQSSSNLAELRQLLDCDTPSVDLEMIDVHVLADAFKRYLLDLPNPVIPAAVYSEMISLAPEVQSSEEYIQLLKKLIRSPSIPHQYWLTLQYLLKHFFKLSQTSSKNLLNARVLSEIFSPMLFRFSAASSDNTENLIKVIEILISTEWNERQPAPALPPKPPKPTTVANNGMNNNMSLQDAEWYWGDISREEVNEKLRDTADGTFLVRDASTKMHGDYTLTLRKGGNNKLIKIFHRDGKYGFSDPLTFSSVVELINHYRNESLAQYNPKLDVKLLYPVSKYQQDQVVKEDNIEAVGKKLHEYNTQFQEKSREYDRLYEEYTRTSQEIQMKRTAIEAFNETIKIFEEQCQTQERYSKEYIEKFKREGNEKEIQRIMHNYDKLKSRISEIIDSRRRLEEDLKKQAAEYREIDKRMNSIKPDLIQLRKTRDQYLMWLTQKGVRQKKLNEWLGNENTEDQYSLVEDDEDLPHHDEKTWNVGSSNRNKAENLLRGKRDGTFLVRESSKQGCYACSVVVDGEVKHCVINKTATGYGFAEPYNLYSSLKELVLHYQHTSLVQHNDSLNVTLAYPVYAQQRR
Procedure: as §1, §2, §3

PI3K β = target: T4, PI3K β (Homo sapiens, UniProt P42338); assay: PI3-Kinase Promega ADP-Glo Max assay; format: biochemical; settings: 40 nM kinase, 3 mM ATP, 500 uM diC8-PtdInsP
T4 construct: purchased Millipore
T4 sequence (P42338 whole entry): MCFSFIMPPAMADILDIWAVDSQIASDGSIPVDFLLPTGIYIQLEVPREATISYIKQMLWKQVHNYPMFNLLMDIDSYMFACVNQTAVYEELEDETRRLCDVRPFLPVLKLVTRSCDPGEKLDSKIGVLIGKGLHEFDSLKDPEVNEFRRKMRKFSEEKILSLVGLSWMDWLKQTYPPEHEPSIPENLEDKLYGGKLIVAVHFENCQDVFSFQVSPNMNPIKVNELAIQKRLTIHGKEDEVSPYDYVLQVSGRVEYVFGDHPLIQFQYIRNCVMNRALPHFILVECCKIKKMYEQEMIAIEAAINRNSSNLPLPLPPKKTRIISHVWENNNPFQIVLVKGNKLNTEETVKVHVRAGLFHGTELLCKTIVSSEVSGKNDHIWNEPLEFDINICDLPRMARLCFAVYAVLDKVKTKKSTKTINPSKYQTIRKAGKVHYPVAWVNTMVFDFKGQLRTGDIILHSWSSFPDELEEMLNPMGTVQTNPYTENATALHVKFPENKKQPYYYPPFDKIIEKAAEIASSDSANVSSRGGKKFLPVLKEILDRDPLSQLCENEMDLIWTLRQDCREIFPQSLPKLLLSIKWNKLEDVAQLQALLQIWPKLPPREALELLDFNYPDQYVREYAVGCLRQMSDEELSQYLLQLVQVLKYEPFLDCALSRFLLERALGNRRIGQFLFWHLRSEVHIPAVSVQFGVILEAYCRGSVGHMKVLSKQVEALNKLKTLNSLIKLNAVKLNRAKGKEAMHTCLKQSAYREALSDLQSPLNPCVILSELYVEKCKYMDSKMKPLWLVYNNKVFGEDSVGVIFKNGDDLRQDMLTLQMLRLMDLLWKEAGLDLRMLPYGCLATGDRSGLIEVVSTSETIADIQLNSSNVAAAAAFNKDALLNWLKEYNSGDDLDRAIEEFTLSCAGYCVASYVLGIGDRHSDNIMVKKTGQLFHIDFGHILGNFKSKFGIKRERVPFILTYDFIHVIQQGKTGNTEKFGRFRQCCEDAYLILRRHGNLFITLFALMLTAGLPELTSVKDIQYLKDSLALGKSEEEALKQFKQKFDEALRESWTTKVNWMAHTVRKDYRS
T4 sequence (P27986 whole entry partner): as the sequence (P27986 whole entry partner) above
Procedure: as §1, §2, §3

PI3K γ = target: T5, PI3K γ (Homo sapiens, UniProt P48736); assay: PI3-Kinase Promega ADP-Glo Max assay; format: biochemical; settings: 40 nM kinase, 3 mM ATP, 500 uM diC8-PtdInsP
T5 construct: purchased Millipore
T5 sequence (P48736 whole entry): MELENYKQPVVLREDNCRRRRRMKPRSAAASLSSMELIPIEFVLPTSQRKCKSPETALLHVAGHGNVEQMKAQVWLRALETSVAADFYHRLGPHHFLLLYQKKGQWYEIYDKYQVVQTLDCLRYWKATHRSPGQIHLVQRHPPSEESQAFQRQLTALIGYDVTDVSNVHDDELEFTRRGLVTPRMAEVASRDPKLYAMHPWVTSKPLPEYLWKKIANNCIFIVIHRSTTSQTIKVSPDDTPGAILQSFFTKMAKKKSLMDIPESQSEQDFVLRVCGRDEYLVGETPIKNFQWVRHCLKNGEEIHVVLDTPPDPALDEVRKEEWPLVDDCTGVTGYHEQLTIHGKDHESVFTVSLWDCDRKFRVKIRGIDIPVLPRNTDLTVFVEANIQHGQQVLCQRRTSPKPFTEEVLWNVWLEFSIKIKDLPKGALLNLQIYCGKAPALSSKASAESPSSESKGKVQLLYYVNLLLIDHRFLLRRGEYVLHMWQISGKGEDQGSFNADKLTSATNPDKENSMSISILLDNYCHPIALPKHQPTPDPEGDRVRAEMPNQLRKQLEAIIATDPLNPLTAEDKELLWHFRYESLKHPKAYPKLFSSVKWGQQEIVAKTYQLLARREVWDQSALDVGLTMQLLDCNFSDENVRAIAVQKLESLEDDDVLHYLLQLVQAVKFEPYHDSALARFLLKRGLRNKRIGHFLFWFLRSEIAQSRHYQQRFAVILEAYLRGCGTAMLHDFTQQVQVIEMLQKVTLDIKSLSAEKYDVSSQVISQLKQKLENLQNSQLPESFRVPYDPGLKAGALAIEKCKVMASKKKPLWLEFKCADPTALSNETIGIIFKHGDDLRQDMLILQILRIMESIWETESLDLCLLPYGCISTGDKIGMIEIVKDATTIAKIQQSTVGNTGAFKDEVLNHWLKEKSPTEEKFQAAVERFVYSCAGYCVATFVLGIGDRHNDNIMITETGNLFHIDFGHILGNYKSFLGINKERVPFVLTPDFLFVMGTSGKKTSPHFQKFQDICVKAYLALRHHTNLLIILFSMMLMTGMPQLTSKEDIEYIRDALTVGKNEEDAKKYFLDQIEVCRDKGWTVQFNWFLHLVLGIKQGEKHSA
Procedure: Promega ADP-Glo Max assay kit (Cat. No. V7002) was utilized to determine IC50 values for α, β, δ and γ isoforms of human Class I PI3 kinases (Millipore). […] Reactions were incubated at room temperature for 2 hours followed by addition of 25 uL of stop solution. After a 40-minute incubation at room temperature, 50 uL of Promega detection mix was added followed by incubation for 1 hour at room temperature. Plates were then read on Envision plate reader in luminescence mode. Data was converted to % inhibition using the following equation below:
[formula] where S is the sample luminescence, Pos is a positive control without added PI3K, Neg is the negative control without added compound. Data was then plotted as % inhibition vs compound concentration.
as §3

RAJI p110 δ = RAJI p110 δ (Homo sapiens, UniProt O00329); assay: RAJI p110 δ cellular assay (phospho-AKT);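 further: potency based on lowered phosphorylated AKT in RAJI cells, as a readout of PI3K-δ dependent B-cell receptor signaling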
From the text: (a) PI3K-δ Selective Assay
Reduction of phospho-AKT is indicative of compounds that may inhibit B-cell proliferation and function in certain diseases.

T1 sequence (Q9JHG7 whole entry): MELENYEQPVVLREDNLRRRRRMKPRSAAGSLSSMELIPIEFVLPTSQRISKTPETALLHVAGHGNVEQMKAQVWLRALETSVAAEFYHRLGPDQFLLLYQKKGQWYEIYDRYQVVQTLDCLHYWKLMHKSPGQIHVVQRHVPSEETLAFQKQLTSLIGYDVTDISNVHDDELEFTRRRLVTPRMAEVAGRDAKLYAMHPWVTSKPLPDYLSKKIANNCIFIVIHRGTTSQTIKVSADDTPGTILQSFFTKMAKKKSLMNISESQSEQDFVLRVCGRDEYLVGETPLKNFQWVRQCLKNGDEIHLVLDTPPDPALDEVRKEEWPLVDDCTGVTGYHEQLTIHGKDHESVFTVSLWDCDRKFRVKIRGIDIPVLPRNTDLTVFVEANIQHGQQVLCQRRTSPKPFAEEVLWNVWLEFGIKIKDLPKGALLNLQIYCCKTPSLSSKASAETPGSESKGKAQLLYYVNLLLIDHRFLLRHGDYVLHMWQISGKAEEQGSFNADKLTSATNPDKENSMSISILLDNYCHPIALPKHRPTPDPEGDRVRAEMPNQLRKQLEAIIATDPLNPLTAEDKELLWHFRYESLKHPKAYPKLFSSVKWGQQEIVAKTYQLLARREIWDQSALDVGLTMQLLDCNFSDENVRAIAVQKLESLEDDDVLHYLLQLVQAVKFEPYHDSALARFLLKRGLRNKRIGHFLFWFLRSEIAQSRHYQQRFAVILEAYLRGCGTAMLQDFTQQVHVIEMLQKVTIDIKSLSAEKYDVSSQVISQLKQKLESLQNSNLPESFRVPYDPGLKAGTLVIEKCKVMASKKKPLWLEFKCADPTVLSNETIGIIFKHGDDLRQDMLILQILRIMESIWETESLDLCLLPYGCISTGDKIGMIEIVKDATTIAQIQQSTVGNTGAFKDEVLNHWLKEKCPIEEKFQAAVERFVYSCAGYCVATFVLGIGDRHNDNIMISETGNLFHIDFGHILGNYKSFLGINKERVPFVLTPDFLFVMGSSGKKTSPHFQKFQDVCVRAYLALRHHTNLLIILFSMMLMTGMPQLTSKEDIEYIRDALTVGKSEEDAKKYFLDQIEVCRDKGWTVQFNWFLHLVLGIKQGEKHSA

Row | SMILES | IC50 (Raw264.7 p110 γ) | IC50 (PI3K δ) | IC50 (PI3K α) | IC50 (PI3K β) | IC50 (PI3K γ) | IC50 (RAJI p110 δ)
1 | C[C@H](NC(=O)c1cccnc1N)c1cc2cccc(Cl)c2c(=O)n1-c1ccccc1 [Compound 3] | 1000 to 10000 nM | – | – | – | – | –
2 | C[C@H](NC(=O)c1nccnc1N)c1cc2cccc(Cl)c2c(=O)n1-c1ccccc1 [Compound 4, (S)-3-amino-N-(1-(8-chloro-1-oxo-2-phenyl-1,2-dihydroisoquinolin-3-yl)ethyl)pyrazine-2-carboxamide] | < 100 nM | < 100 nM | 1000 to 10000 nM | 100 to 1000 nM | 100 to 1000 nM | < 100 nM
3 | C[C@H](NC(=O)c1cnc2cccnn12)c1cc2cccc(Cl)c2c(=O)n1-c1ccccc1 [Compound 13] | 100 to 1000 nM | 100 to 1000 nM | – | 1000 to 10000 nM | 1000 to 10000 nM | 100 to 1000 nM
4 | C[C@H](NC(=O)c1cnccn1)c1cc2cccc(Cl)c2c(=O)n1-c1ccccc1 [Compound 14] | > 10000 nM | – | – | – | – | –
5 | C[C@H](NC(=O)c1nc(Br)cnc1N)c1cc2cccc(Cl)c2c(=O)n1-c1ccccc1 [Compound 15] | > 10000 nM | – | – | – | – | –
6 | C[C@H](NC(=O)c1nccnc1N)c1cc2cccc(Cl)c2c(=O)n1-c1ccc(F)cc1 [Compound 19] | < 100 nM | 100 to 1000 nM | > 10000 nM | 100 to 1000 nM | 100 to 1000 nM | < 100 nM
7 | C[C@H](NC(=O)c1cnc2cccnn12)c1cc2cccc(Cl)c2c(=O)n1-c1ccc(F)cc1 [Compound 20] | 100 to 1000 nM | 1000 to 10000 nM | 1000 to 10000 nM | 1000 to 10000 nM | 1000 to 10000 nM | < 100 nM
8 | C[C@H](NC(=O)c1cnn2cccnc12)c1cc2cccc(Cl)c2c(=O)n1-c1ccccc1 [Compound 22] | 100 to 1000 nM | 1000 to 10000 nM | > 10000 nM | 1000 to 10000 nM | 1000 to 10000 nM | 100 to 1000 nM
9 | C[C@H](NC(=O)c1nc(-c2ccccc2)cnc1N)c1cc2cccc(Cl)c2c(=O)n1-c1ccccc1 [Compound 42] | 1000 to 10000 nM | > 10000 nM | > 10000 nM | > 10000 nM | 1000 to 10000 nM | 100 to 1000 nM
10 | C[C@H](NC(=O)c1cncc2cccnc12)c1cc2cccc(Cl)c2c(=O)n1-c1ccccc1 [Compound 45] | < 100 nM | 100 to 1000 nM | > 10000 nM | 1000 to 10000 nM | 1000 to 10000 nM | < 100 nM
11 | C[C@H](NC(=O)c1nccnc1N)c1cc2cccc(-c3cnn(C)c3)c2c(=O)n1-c1ccccc1 [Compound 54, (S)-3-amino-N-(1-(8-(1-methyl-1H-pyrazol-4-yl)-1-oxo-2-phenyl-1,2-dihydroisoquinolin-3-yl)ethyl)pyrazine-2-carboxamide] | 100 to 1000 nM | 1000 to 10000 nM | > 10000 nM | > 10000 nM | 100 to 1000 nM | < 100 nM
12 | C[C@H](NC(=O)c1nccnc1N)c1cc2cccc(-c3cccnc3)c2c(=O)n1-c1ccccc1 [Compound 55] | 1000 to 10000 nM | < 100 nM | > 10000 nM | > 10000 nM | 1000 to 10000 nM | < 100 nM
13 | C[C@H](NC(=O)c1nccnc1N)c1cc2cccc(-c3cc[nH]n3)c2c(=O)n1-c1ccccc1 [Compound 59] | 1000 to 10000 nM | 100 to 1000 nM | > 10000 nM | > 10000 nM | 1000 to 10000 nM | < 100 nM
14 | C[C@H](NC(=O)c1cnn2cccnc12)c1cc2cccc(Cl)c2c(=O)n1-c1ccc(F)cc1 [Compound 62] | 100 to 1000 nM | 1000 to 10000 nM | 1000 to 10000 nM | 1000 to 10000 nM | 100 to 1000 nM | 100 to 1000 nM
15 | C[C@H](NC(=O)c1cncc2cccnc12)c1cc2cccc(Cl)c2c(=O)n1-c1ccc(F)cc1 [Compound 65] | < 100 nM | 1000 to 10000 nM | 1000 to 10000 nM | 1000 to 10000 nM | 1000 to 10000 nM | < 100 nM
16 | C[C@H](NC(=O)c1cncc2cccnc12)c1cc2cccc(C(F)(F)F)c2c(=O)n1-c1ccccc1 [Compound 67] | < 100 nM | – | – | – | – | < 100 nM

Row | SMILES | IC50 (Raw264.7 p110 γ) | IC50 (PI3K δ) | IC50 (PI3K α) | IC50 (PI3K β) | IC50 (PI3K γ) | IC50 (RAJI p110 δ)
17 | C[C@H](NC(=O)c1csc2cccnc12)c1cc2cccc(Cl)c2c(=O)n1-c1ccccc1 [Compound 68] | 1000 to 10000 nM | – | – | – | – | 1000 to 10000 nM
18 | C[C@H](NC(=O)c1c(N)nn2cccnc12)c1cc2cccc(Cl)c2c(=O)n1-c1ccccc1 [Compound 70] | – | 100 to 1000 nM | 1000 to 10000 nM | 100 to 1000 nM | – | < 100 nM
19 | C[C@H](NC(=O)c1c(N)nn2cccnc12)c1cc2cccc(C(F)(F)F)c2c(=O)n1-c1ccccc1 [Compound 71] | < 100 nM | 1000 to 10000 nM | > 10000 nM | 1000 to 10000 nM | 100 to 1000 nM | < 100 nM
20 | C[C@H](NC(=O)c1c(N)nn2cccnc12)c1cc2cccc(Cl)c2c(=O)n1-c1ccc(F)cc1 [Compound 72] | < 100 nM | 1000 to 10000 nM | 1000 to 10000 nM | 100 to 1000 nM | < 100 nM | < 100 nM
21 | CC(C)n1c([C@H](C)NC(=O)c2c(N)nn3cccnc23)cc2cccc(Cl)c2c1=O [Compound 73] | < 100 nM | 1000 to 10000 nM | 1000 to 10000 nM | 100 to 1000 nM | 100 to 1000 nM | < 100 nM
22 | C[C@H](NC(=O)c1c(N)nn2cccnc12)c1cc2cccc(Cl)c2c(=O)n1C [Compound 74] | < 100 nM | 100 to 1000 nM | 1000 to 10000 nM | < 100 nM | 100 to 1000 nM | < 100 nM
23 | C[C@H](NC(=O)c1c(N)nn2cccnc12)c1cc2cccc(Cl)c2c(=O)n1-c1ccc(F)c(F)c1 [Compound 75] | < 100 nM | 1000 to 10000 nM | 1000 to 10000 nM | 1000 to 10000 nM | < 100 nM | 100 to 1000 nM
24 | C[C@H](NC(=O)c1c(N)nn2cccnc12)c1cc2cccc(Cl)c2c(=O)n1C1CC1 [Compound 77] | < 100 nM | 100 to 1000 nM | 100 to 1000 nM | < 100 nM | 100 to 1000 nM | < 100 nM
25 | C[C@H](NC(=O)c1c(N)nn2cccnc12)c1cc2cccc(Cl)c2c(=O)n1-c1cccc(F)c1 [Compound 78] | < 100 nM | 100 to 1000 nM | 1000 to 10000 nM | 100 to 1000 nM | < 100 nM | < 100 nM
26 | Cc1cnc(C(=O)N[C@@H](C)c2cc3cccc(C(F)(F)F)c3c(=O)n2-c2ccccc2)c(N)n1 [Compound 80] | 100 to 1000 nM | > 10000 nM | > 10000 nM | > 10000 nM | 1000 to 10000 nM | 1000 to 10000 nM
27 | Cc1ccn2ncc(C(=O)N[C@@H](C)c3cc4cccc(Cl)c4c(=O)n3-c3ccccc3)c2n1 [Compound 82] | 100 to 1000 nM | 1000 to 10000 nM | > 10000 nM | 1000 to 10000 nM | 1000 to 10000 nM | 100 to 1000 nM
28 | C[C@H](NC(=O)c1nc(-c2cccc(S(C)(=O)=O)c2)cnc1N)c1cc2cccc(Cl)c2c(=O)n1-c1ccccc1 [Compound 84] | < 100 nM | 1000 to 10000 nM | – | 1000 to 10000 nM | 100 to 1000 nM | 100 to 1000 nM
29 | C[C@H](NC(=O)c1c(N)nn2cccnc12)C1Cc2cccc(F)c2C(=O)N1c1ccccc1 (stereo partly drawn) [Compound 304] | – | > 10000 nM | > 10000 nM | > 10000 nM | > 10000 nM | –
30 | C[C@H](NC(=O)c1cc(-c2cccc(NS(C)(=O)=O)c2)cnc1N)c1cc2cccc(Cl)c2c(=O)n1-c1ccccc1 [Compound 306] | – | > 10000 nM | > 10000 nM | > 10000 nM | > 10000 nM | –
31 | C[C@H](NC(=O)c1c(N)nn2c1NCCC2)c1cc2cccc(Cl)c2c(=O)n1-c1ccccc1 [Compound 307] | – | > 10000 nM | > 10000 nM | > 10000 nM | > 10000 nM | –
